# Legend:
# DHA-STS = biological target: T1, DHA-STS (Rattus norvegicus, UniProt P15589); settings: administered either orally or subcutaneously; cited from earlier work
# T1 construct: from tissue; host or cells: rat liver
# T1 sequence (P15589 20-577): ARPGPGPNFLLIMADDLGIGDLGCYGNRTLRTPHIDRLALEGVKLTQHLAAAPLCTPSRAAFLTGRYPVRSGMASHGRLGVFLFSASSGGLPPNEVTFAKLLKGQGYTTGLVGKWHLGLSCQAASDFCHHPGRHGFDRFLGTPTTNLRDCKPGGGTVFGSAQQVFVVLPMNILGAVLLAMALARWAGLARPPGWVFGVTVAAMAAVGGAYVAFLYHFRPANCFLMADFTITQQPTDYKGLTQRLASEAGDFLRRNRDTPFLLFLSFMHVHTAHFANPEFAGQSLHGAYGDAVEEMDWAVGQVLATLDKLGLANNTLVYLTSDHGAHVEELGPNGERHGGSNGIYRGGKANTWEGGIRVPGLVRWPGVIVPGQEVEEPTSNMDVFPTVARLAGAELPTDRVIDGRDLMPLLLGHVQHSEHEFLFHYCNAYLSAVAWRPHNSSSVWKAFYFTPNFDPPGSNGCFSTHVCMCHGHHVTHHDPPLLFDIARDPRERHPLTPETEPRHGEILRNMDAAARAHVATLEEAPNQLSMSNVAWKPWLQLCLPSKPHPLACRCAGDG
# E1-STS = biological target: T2, E1-STS (Homo sapiens, UniProt P08842); settings: intact MCF-7 cells, at 0.1 mM; cited from earlier work
# T2 construct: endogenous in cells; host or cells: MCF-7 human breast cancer cells
# T2 sequence (P08842 22-583): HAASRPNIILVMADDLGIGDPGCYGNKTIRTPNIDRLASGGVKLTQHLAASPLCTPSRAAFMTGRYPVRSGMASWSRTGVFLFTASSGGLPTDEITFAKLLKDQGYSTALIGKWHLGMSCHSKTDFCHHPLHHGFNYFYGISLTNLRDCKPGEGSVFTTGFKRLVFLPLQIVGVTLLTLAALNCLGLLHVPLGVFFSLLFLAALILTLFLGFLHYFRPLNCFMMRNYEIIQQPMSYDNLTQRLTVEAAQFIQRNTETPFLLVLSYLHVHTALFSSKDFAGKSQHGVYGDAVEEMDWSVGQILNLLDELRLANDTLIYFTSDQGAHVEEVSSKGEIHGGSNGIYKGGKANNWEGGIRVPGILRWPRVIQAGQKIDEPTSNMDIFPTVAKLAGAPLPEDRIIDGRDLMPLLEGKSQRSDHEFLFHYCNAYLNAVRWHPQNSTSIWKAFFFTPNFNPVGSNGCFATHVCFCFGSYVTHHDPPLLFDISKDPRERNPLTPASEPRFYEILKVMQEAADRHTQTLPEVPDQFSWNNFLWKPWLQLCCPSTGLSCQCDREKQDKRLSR
# rat liver E1-STS = biological target: T3, rat liver E1-STS (Rattus norvegicus, UniProt P15589); settings: administered either orally or subcutaneously; cited from earlier work
# T3 construct: from tissue; host or cells: rat liver
# T3 sequence (P15589 20-577): T1 sequence (P15589 20-577)
# rats = settings: cited from earlier work
Compound,melting point,other results
"CCc1cc(-c2ccc(-c3ccnn3C)cc2)ccc1OC [Compound 46, 5-(3′-Ethyl-4′-methoxy-biphenyl-4-yl)-1-methyl-1H-pyrazole]",97 to 100 °C,–
"C[C@]12CC[C@@H]3c4ccc(OS(N)(=O)=O)cc4CC[C@H]3[C@@H]1CCC2=O [EMATE, oestrone-3-sulphamate]",–,inhibition of rat liver DHA-STS activity (DHA-STS): 99%; inhibition of E1-STS activity (E1-STS): more than 99%; inhibition of rat liver E1-STS activity (rat liver E1-STS): 99%; oral uterotrophic activity relative to oestradiol (rats): 100 times
"CCc1cc(-c2ccc(-c3ccn(CC(=O)OC)n3)cc2)ccc1OC [Compound 48, [3-(3′-Ethyl-4′-methoxy-biphenyl-4-yl)-pyrazol-1-yl]-acetic Acid Methyl Ester]",116 to 120 °C,–
"CCc1cc(Oc2ccc(C(C)=O)cc2)ccc1OC [Compound 140, 1-(4-(3-Ethyl-4-methoxyphenoxy)phenyl)ethanone]",53 to 56 °C,–
"CCc1cc(-c2ccc(-c3ccn(C)n3)cc2)ccc1OC [Compound 45, 3-(3′-Ethyl-4′-methoxy-biphenyl-4-yl)-1-methyl-1H-pyrazole]",167 to 170 °C,–
"CCc1cc(-c2ccc(-c3cc[nH]n3)cc2)ccc1OC [Compound 44, 3-(3′-Ethyl-4′-methoxy-biphenyl-4-yl)-1H-pyrazole]",164 to 168 °C,–
"CC(=O)c1ccc(Oc2cccnc2)cc1 [Compound 135, 1-(4-(Pyridin-3-yloxy)phenyl)ethanone]",45 to 50 °C,–
"CC(=O)c1ccc(Oc2ccc(O)cc2)cc1 [Compound 129, 1-(4-(4-Hydroxyphenoxy)phenyl)ethanone]",159 to 161 °C,–

# Further lines, with some results ahead:
melting point,Compound,other results
69 to 72 °C,"CCc1cc(-c2ccc(C(C)=O)cc2)ccc1OC [Compound 38, 1-(3′-Ethyl-4′-methoxy-biphenyl-4-yl)-ethanone]",–
> 191 °C (dec.),"O=C(CCC(=O)c1ccc(Oc2ccc(O)cc2)cc1)NCc1cccnc1 [Compound 118, 4-(4-(4-Hydroxyphenoxy)phenyl)-4-oxo-N-((pyridin-3-yl)methyl)butanamide]",–
210 to 214 °C,"CCc1cc(-c2ccc(-c3cc(CCC(=O)NCc4cccnc4)[nH]n3)cc2)ccc1O [Compound 66, 3-[5-(3′-Ethyl-4′-hydroxy-biphenyl-4-yl)-2H-pyrazol-3-yl]-N-pyridin-3-ylmethyl-propionamide]",–
> 110 °C (dec.),"CCc1cc(-c2ccc(C(=O)CCC(=O)NCCO)cc2)ccc1O [Compound 37, 4-(3′-Ethyl-4′-hydroxy-biphenyl)-4-oxo-N-(2-hydroxyethyl)-butyramide]",–

# Reference: US20090186900A1, “COMPOUND” (priority 2006, published 2009)
